{
  "source": "paper PMC4830539",
  "about": "“Chemical Inhibition of Histone Deacetylases 1 and 2 Induces Fetal Hemoglobin through Activation of GATA2” (PLoS ONE, 2016)",
  "key": {"[1]": {"test_system": "histone acetylation", "assay": "Histone acetylation by western blot in primary human erythroblasts", "assay_type": "cell-based", "conditions": "1 μM or 5 μM, 24 hours", "excerpt": "The EpiQuick Total Histone Extraction kit (Epigentek) was used to isolate histones. Histone lysates were size separated on Bolt 4–12% Bis-Tris gradient gels (Life Technologies), transferred to polyvinylidene difluoride membrane and detected using standard western blotting technique. GATA2 protein was detected by lysing cells in RIPA denaturing buffer supplemented with protease inhibitors followed by detection using a Wes capillary electrophoresis system (Protein Simple) or western blotting on nitrocellulose membrane. Antibodies used for western blotting: Anti-GATA2 [clone EPR2822(2)] (Abcam), anti-ACTB [clone 1E35] (Cell Signaling Technology), anti-H3K9/14 [catalog number 17–615] (EMD Millipore), anti-H3K56ac [clone EPR996Y] (Abcam), anti-H3K79 [catalog number 07–750] (EMD Millipore), anti-H2BK5 [catalog number 2574] (Cell Signaling Technology), anti-H3K9me3 [catalog number 07–442] (EMD Millipore), and anti-total-H4 [clone 62-141-13] (EMD Millipore).\nNext, ACY-957’s ability to inhibit HDAC activity in primary hematopoietic progenitors derived from human bone marrow was investigated. […]"}, "[2]": {"test_system": "GATA2 mRNA", "assay": "GATA2 mRNA in cells from SCD donors", "assay_type": "cell-based, human", "conditions": "1 μM, 3 days of culture"}, "[3]": {"test_system": "HBG mRNA", "assay": "HBG induction in GATA2 knockdown BM cells", "assay_type": "cell-based, human", "conditions": "1 μM, 4 days, CS1 expansion media", "description": "shRNA experiments were conducted using the RNAi consortium (TRC) TRC1.5 vector, also known as pLKO.1-puro (Sigma). Five vectors containing shRNA targeting GATA2 were screened in expanded BM cells and the two hairpins yielding the greatest knockdown of GATA2 mRNA were selected for further use: shG2-1, TRCN0000019264 and shG2-2, TRCN0000019265. […] Lentiviral supernatants were produced in the 293T cell line using shRNA vectors, viral packaging mix (Sigma, SHP001), and TransIT-293 transfection reagent (Mirus Bio, Madison, WI). BM cells were grown for 3 days in CS1 expansion media, and then transduced using lentiviral supernatant’s supplemented with 5 μg/mL of polybrene under room temperature centrifugation at 1200 x g for 75 minutes. Transduced cells were grown for two days to allow for expression of construct, followed by selection for two days in 1 μg/mL of puromycin. The GATA2 overexpression vector (oeG2) was constructed by removing the GFP cassette of the pLKO.1-puro-CMV-TurboGFP vector (Sigma, SHC003) at the 5' NheI and 3' PstI cloning sites and replacing it with the full-length GATA2 transcript sequence (Refseq NM_001145661) (GenScript, Piscataway, NJ). pLKO.1-puro-CMV-TurboGFP vector was used as a control (oeGFP). BM cells were grown for 3 days in CS1 expansion media, and then transduced using the RetroNectin-bound virus method according to manufacturer’s protocol. […]"}},
  "data": [
    {"compound": "Nc1ccc(-c2cccs2)cc1NC(=O)c1ccc2nc(N3CCNCC3)ccc2c1", "note": "[ACY-957]", "values": [
      {"measurement": "acetylation of H3K9/14ac, H3K56, H3K79ac and H2BK5ac", "setting": "[1]", "result": "dose-dependent accumulation of acetylation"},
      {"measurement": "histone H3 lysine 9 tri-methylation (H3K9me3)", "setting": "[1]", "result": "not affected"},
      {"measurement": "GATA2 expression in primary cells derived from SCD patients", "setting": "[2]", "result": "elevated GATA2 expression"},
      {"measurement": "reduction of the magnitude of HBG mRNA induction in shG2-1 and shG2-2 cells relative to shCtrl cells", "setting": "[3]", "result": 25, "unit": "%"}
    ]}
  ]
}
